From patent US5196447A, “Neristatin 1” (Arizona Board of Regents, a body Corporate of The State of …, priority 1991, dated 1993)
Values after ≈ are worked out from the molar mass of the structure shown.

Columns and labels:
[1] = molecular target: protein kinase C; assay: Competition for [26-3H] bryostatin 4 binding to protein kinase C (phosphatidylserine/TRITON X-100 mixed micelles)
[2] = tested on: protein kinase C; assay: Usual phorbol ester binding conditions using reconstitution of protein kinase C in phosphatidylserine
[3] = tested on: P388 cell line; assay: Activity against the P388 lymphocytic leukemia cell line; assay type: cell-based, murine
[4] = Stability in recrystallization attempts / various solvents; assay type: physicochemical

SMILES: COC(=O)C=C1CC2C=CC(C)(C)C(=O)C34OC(=O)CC3CC(CC(O)C(C)OC(=O)CC(O)CC3CC(OC(=O)C(C)(C)C)C(C)(C)C(O)(CC(C1)O2)O3)O4 (stereo not shown) [neristatin 1]
- Ki ([1]; phosphatidylserine/TRITION X-100 mixed micelles, competition for [26-3H] bryostatin 4, neristatin 1: mean±SEM, 4 experiments): 124 ± 10 nM
- affinity for protein kinase C compared with bryostatin 4 ([1]; relative to bryostatin 4): at least two orders of magnitude less
- affinity for protein kinase C compared with phorbol 12,13-dibutyrate ([2]; relative to phorbol 12,13-dibutyrate): an order of magnitude less
- Ki ([2]; usual phorbol ester binding conditions, reconstitution in phosphatidylserine, neristatin 1: mean±sem, 3 experiments): 21.2 ± 1.3 nM
- IC50 ([3]; Mus musculus, read-out: ED50 (the source's name)): 10 µg/mL (≈ 12.6 µM)
- potency compared to bryostatin 5 ([3]; relative to bryostatin 5): reduced but still significant potency
- stability of small samples in various solvents [4]: rapidly degraded in various solvents
